Results: patent US6004982A, “4-piperidinyl) H-2-benzopyran derivatives useful as antipsychotic agents” (Hoechst Marion Roussel, Inc., priority 1998, dated 1999)
Counter-ions that a name gives are not always drawn.

What follows are compounds tested against T1, human dopamine D2L receptor (Human D2Long Receptors) (Homo sapiens, UniProt P14416) (assay: Human dopamine D2L receptor binding assay ([3H]N-methyl spiroperidol displacement)). Details: not given.
T1 construct: expressed in transfected cells
T1 sequence (P14416 whole entry): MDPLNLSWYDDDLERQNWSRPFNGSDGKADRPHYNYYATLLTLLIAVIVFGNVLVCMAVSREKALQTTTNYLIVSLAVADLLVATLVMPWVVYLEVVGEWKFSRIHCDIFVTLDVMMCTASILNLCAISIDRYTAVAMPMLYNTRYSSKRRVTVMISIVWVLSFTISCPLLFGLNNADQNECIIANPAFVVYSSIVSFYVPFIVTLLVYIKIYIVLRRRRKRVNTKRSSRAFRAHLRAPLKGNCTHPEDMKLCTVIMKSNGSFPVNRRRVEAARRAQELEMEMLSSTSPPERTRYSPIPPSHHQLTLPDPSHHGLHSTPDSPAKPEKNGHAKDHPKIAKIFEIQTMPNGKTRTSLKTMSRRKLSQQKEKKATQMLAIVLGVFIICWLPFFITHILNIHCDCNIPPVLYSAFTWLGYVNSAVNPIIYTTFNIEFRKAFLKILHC
Procedure: A single high expressing clonal cell line was isolated and membranes from this cell line were used for receptor binding assays. […] The incubation buffer contained: 50 mM Tris, 120 mM NaCl; 5 mM Kcl; 2 mM CaCl2; 1 mM MgCl2; pH 7.7). […] Incubations were performed at 37° C. in a shaking water bath for 30 min, terminated by rapid filtration through Whatman GF/B filters (presoaked in 0.3% polyethyleneimine), and counted in a liquid scintillation counter. Non-specific binding was defined as that remaining in the presence of 3 μM eticlopride. […] The percent inhibition at each drug concentration was the average of duplicate determinations. […] Cheng-Prisoff determination (Ki's) are performed using Prism software.

| SMILES | Ki [nM] |
| --- | --- |
| COc1cc(C(C)=O)ccc1OCCCN1CCC([C@@H]2Cc3c(ccc4c3OC3(CCCCC3)O4)[C@H](CNC=O)O2)CC1 (relative stereo) [Example 30, cis-N-[3-[1-[3-(4-acetyl-2-methoxyphenoxy)propyl]-4-piperidinyl]-5,6-(cyclohexylidenedioxy)-3,4-dihydro-1H-2-benzopyran-1-ylmethyl]formamide oxalate Trihydrate] | 857 |
| O=CNC[C@@H]1O[C@H](C2CCN(CCc3cccs3)CC2)Cc2c1ccc1c2OC2(CCCCC2)O1 (relative stereo) [Example 24, cis-N-[5,6-(cyclohexylidinedioxy)-3,4-dihydro-3-[1(2-(thiophen-2-yl)ethyl)-4-piperidinyl]-1H-2-benzofuran-1-ylmethyl]formamide] | 506 |

Same assay, conditions: Table 2; [3H]N-methyl spiroperidol 0.4 nM; CHO membranes; 37° C., 30 min; pH 7.7; read-out: Ki

| Ki [nM] | SMILES |
| --- | --- |
| 432 | NC[C@@H]1O[C@H](C2CCN(CCCn3c(=O)[nH]c4ccccc43)CC2)Cc2c1ccc(O)c2O (relative stereo) [Example 34, cis-1-[3-[4-(1-Aminomethyl-3,4-dihydro-5,6-dihydroxy-1H-2-benzopyran-3-yl)-1-piperidinyl]propyl]-1,3-dihydrobenzimidazol-2-one Dihydrochloride 1.33 Hydrate] |
| 153 | NC[C@@H]1O[C@H](C2CCN(CCCC(c3ccc(F)cc3)c3ccc(F)cc3)CC2)Cc2c1ccc1c2OC2(CCCCC2)O1 (relative stereo) [Example 39, cis-1-Aminomethyl-5,6-(cyclohexylidenedioxy)-3,4-dihydro-3-[1-[4,4-bis(4-fluorophenyl)butyl]-4-piperidinyl]-1H-2-benzopyran Dioxalate 2.4 Hydrate] |
| 91.8 | NC[C@@H]1O[C@H](C2CCN(CCCC(c3ccc(F)cc3)c3ccc(F)cc3)CC2)Cc2c1ccc(O)c2O (relative stereo) [Example 29, cis-1-(Aminomethyl)3-[1-[4,4-bis-(4-fluorophenyl)butyl]-4-piperidinyl]-1H-2-benzopyran-5,6-diol Dihydrochloride Dihydrate] |
| 505 | NC[C@@H]1O[C@H](C2CCN(CCc3ccc(Cl)cc3)CC2)Cc2c1ccc(O)c2O (relative stereo) [Example 14, cis-1-(Aminomethyl)-3-[1-[2-(4-chlorophenyl)ethyl]-3,4-dihydro-4-piperidinyl]-1H-2-benzopyran-5,6-diol dihydrochloride] |

Continued, compound first:

| SMILES | Ki [nM] |
| --- | --- |
| NC[C@@H]1O[C@H](C2CCN(CCc3ccccc3)CC2)Cc2c1ccc(O)c2O (relative stereo) [Example 4D, cis-1-(Aminomethyl)-3,4-dihydro-3-[1-(2-phenylethyl)-4-piperidinyl]-1H-2-benzopyran-5,6-diol Dihydrobromide Sesquihydrate] | 1090 |
| COc1cc(C(C)=O)ccc1OCCCN1CCC([C@@H]2Cc3c(ccc(O)c3O)[C@H](CN)O2)CC1 (relative stereo) [Example 31, cis-1-(3-[3-[4-[1-(Aminomethyl)-3,4-dihydro-5,6-dihydroxy-1H-2-benzopyran-3-yl]-1-piperidinyl]propoxy]-3-methoxyphenyl)ethanone Dihydrochloride Dihydrate] | 1100 |
| NC[C@@H]1O[C@H](C2CCN(CCOc3ccccc3)CC2)Cc2c1ccc(O)c2O (relative stereo) [Example 23, cis-1-(Aminomethyl)-3,4-dihydro-3-[1(2-phenoxyethyl)-4-piperidinyl]-1H-2-benzopyran-5,6-diol dihydrochloride 0.4 hydrate] | 500 |
| NC[C@@H]1O[C@H](C2CCNCC2)Cc2c1ccc(O)c2O (relative stereo) [Example 33, cis-1-(Aminomethyl)-3,4-dihydro-3-(4-piperidinyl)-1H-2-benzopyran-5,6-diolDihydrochloride 0.3 Hydrate] | 3900 |
| COc1ccc(CCN2CCC([C@@H]3Cc4c(ccc(O)c4O)[C@H](CN)O3)CC2)cc1 (relative stereo) [Example 11, cis-1-(Aminomethyl)-3,4-dihydro-3-[1-[2-(4-methoxyphenyl)ethyl]-4-piperidinyl]-1H-2-benzopyran-5,6-diol Dihydrochloride] | 1200 |
| CNC[C@@H]1O[C@H](C2CCN(CCc3ccc(Cl)cc3)CC2)Cc2c1ccc(O)c2O (relative stereo) [Example 15, cis-3-[1-[2-(4-Chlorophenyl)ethyl]-4-piperidinyl]-3,4-dihydro-1-(N-methylaminomethyl)-1H-2-benzopyran-5,6-diol dihydrochloride hemihydrate] | 413 |

Each compound was assayed on apomorphine-induced climbing in CD-1 male mice (assay: Climbing mouse assay (CMA), antagonism of apomorphine-induced climbing). Details: ip, Table I, compounds of the invention, i.p. 30 min before apomorphine 1.5 mg/kg s.c.
Type: in vivo
Procedure: CLIMBING MOUSE ASSAY (CMA)
This test may be used as to identify compounds useful in treating psychosis. Costall, B. et al, Eur. J. Pharm. 50: 39-50 (1978); Protais, P., et al., Psychopharmacology 50:1-6 (1976). […] This effect of apomorphine is antagonized by the D2 receptor antagonist.
CD-1 male mice (20-30 grams) are assigned to groups of 8 and individually placed in wire mesh stick cages and allowed one hour for adaptation to new environment. Apomorphine is injected at 1.5 mg/kg subcutaneously which is a dose which causes climbing in all subjects for thirty minutes. Test compounds are administered intraperitoneally thirty minutes prior to the apomorphine administration at a dose of 20 mg/kg.
For evaluation of climbing, three readings are taken at ten, twenty and thirty minutes after apomorphine administration according to the following scale:
4 paws on bottom (no climbing) 0
2 paws on the wall (rearing) 1
4 paws on the wall (full climb) 2
The climbing scores are individually totaled (maximal score: 6 per mouse over three readings) and total score of the control (vehicle intraperitoneally (ip) and apomorphine subcutaneous) is set to 100%. ED50 values with 95% confidence limits calculated by a linear regression analysis of some of the compounds of the present invention as well as a standard antipsychotic agent (clozapine) are presented in Table 1.

| SMILES | ED50 [mg/kg] |
| --- | --- |
| NC[C@@H]1O[C@H](C2CCN(CCc3ccccc3)CC2)Cc2c1ccc(O)c2O (relative stereo) [Example 4D, cis-1-(Aminomethyl)-3,4-dihydro-3-[1-(2-phenylethyl)-4-piperidinyl]-1H-2-benzopyran-5,6-diol Dihydrobromide Sesquihydrate] | 8.1 |
